Assay [1] deals with a variety of test species. The assay can be described thus: Pre-emergence herbicidal activity (Example 8a, Table 2). It is filed as in vivo. The arrangement: key: 0 = no damage to plant, 5 = total damage to plant. The settings on record: application pre-emergence, rate 1000 g/ha, evaluated after 13 days. A digest of the protocol: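 Seeds sown in standard soil in pots, sprayed one day later (pre-emergence) with aqueous solution from acetone/water (50:50) formulation with 0.5% Tween 20. Glasshouse at 24/16 °C day/night, 14 h light, 65% humidity, watered twice daily. Damage scored after 13 days, 0 (none) to 5 (total).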

Assay [2] deals with a variety of test species. The assay can be described thus: Post-emergence herbicidal activity (Example 8b, Table 3). It is filed as in vivo. The settings on record: application post-emergence, rate 1000 g/ha, evaluated after 13 days, scale 0-5; for Herbicidal damage score, ABUTH: Abutilon theophrasti; for Herbicidal damage score, ALOMY: Alopecurus myosuroides; for Herbicidal damage score, AMARE: Amaranthus retroflexus; for Herbicidal damage score, ECHCG: Echinochloa crus-galli; for Herbicidal damage score, SETFA: Setaria faberi; for Herbicidal damage score, ZEAMX: Zea mays. In a few lines: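 Pot-grown plants, 8 days after sowing, were sprayed with compound formulated in acetone/water (50:50) with 0.5% Tween 20. Glasshouse conditions 24/16° C day/night, 14 h light, 65% humidity; damage scored after 13 days on a 0 (none) to 5 (total) scale.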

The source of these data is patent US9605004B2, “Chemical compounds” (SYNGENTA LIMITED, priority 2013, dated 2017).

Regarding `CC1=C(Cl)C(=O)N(c2cc3n(n2)CCCC3(C)C)C1O` (stereo not shown) [Compound G9], in assay [1], the “Pre-emergence herbicidal activity, damage score ABUTH” value was 5; the “Pre-emergence herbicidal activity, damage score ALOMY” value stood at 4; the “Pre-emergence herbicidal activity, damage score AMARE” value is 5; the “Pre-emergence herbicidal activity, damage score ECHCG” value was found to be 5. For the same compound, in assay [1], the “Pre-emergence herbicidal activity, damage score SETFA” value is 5 and the “Pre-emergence herbicidal activity, damage score ZEAMX” value amounted to 3. Besides, in assay [2], the “Herbicidal damage score, ABUTH” value was 5; the “Herbicidal damage score, ALOMY” value was 5; the “Herbicidal damage score, AMARE” value is given as 5; the “Herbicidal damage score, ECHCG” value is 5. Also, in assay [2], the “Herbicidal damage score, SETFA” value was found to be 5 and the “Herbicidal damage score, ZEAMX” value was found to be 5.
`CC1=C(Cl)C(=O)N(c2cc(C3CC3)[nH]n2)C1O` (stereo not shown) [Compound A4]: in assay [1], the “Pre-emergence herbicidal activity, damage score ABUTH” value is recorded as 5; the “Pre-emergence herbicidal activity, damage score ALOMY” value amounted to 4; the “Pre-emergence herbicidal activity, damage score AMARE” value stood at 5; the “Pre-emergence herbicidal activity, damage score ECHCG” value was determined as 5. Besides, in assay [1], the “Pre-emergence herbicidal activity, damage score SETFA” value is given as 5 and the “Pre-emergence herbicidal activity, damage score ZEAMX” value came to 2. Moreover, in assay [2], the “Herbicidal damage score, ABUTH” value turned out to be 5; the “Herbicidal damage score, ALOMY” value stood at 5; the “Herbicidal damage score, AMARE” value was 5; the “Herbicidal damage score, ECHCG” value came to 5. Further, in assay [2], the “Herbicidal damage score, SETFA” value worked out at 5 and the “Herbicidal damage score, ZEAMX” value is given as 5.
`CC1=C(Cl)C(=O)N(c2nn(C)c3c2C2CCC3C2)C1O` (stereo not shown) [Compound E4]: in assay [1], the “Pre-emergence herbicidal activity, damage score ABUTH” value amounted to 5; the “Pre-emergence herbicidal activity, damage score ALOMY” value was found to be 3; the “Pre-emergence herbicidal activity, damage score AMARE” value worked out at 5; the “Pre-emergence herbicidal activity, damage score ECHCG” value turned out to be 4. In addition, in assay [1], the “Pre-emergence herbicidal activity, damage score SETFA” value amounted to 5 and the “Pre-emergence herbicidal activity, damage score ZEAMX” value worked out at 2. In assay [2], the “Herbicidal damage score, ABUTH” value stood at 5; the “Herbicidal damage score, ALOMY” value amounted to 4; the “Herbicidal damage score, AMARE” value amounted to 5; the “Herbicidal damage score, ECHCG” value is 5. Besides, in assay [2], the “Herbicidal damage score, SETFA” value was found to be 5 and the “Herbicidal damage score, ZEAMX” value is listed as 4.
Regarding `CCC(C)(CC)c1cc(N2C(=O)C(Cl)=C(C)C2O)n[nH]1` (stereo not shown) [Compound A7], in assay [1], the “Pre-emergence herbicidal activity, damage score ABUTH” value was determined as 5; the “Pre-emergence herbicidal activity, damage score ALOMY” value is recorded as 3; the “Pre-emergence herbicidal activity, damage score AMARE” value is given as 5; the “Pre-emergence herbicidal activity, damage score ECHCG” value was 5. In addition, in assay [1], the “Pre-emergence herbicidal activity, damage score SETFA” value worked out at 5 and the “Pre-emergence herbicidal activity, damage score ZEAMX” value is on record as 3. For the same compound, in assay [2], the “Herbicidal damage score, ABUTH” value is listed as 5; the “Herbicidal damage score, ALOMY” value is 5; the “Herbicidal damage score, AMARE” value came out at 5; the “Herbicidal damage score, ECHCG” value worked out at 5. Moreover, in assay [2], the “Herbicidal damage score, SETFA” value was determined as 5 and the “Herbicidal damage score, ZEAMX” value was 5.
Regarding `CC1=C(Cl)C(=O)N(c2cc3n(n2)CCS(=O)(=O)C3(C)C)C1O` (stereo not shown) [Compound G11], in assay [1], the “Pre-emergence herbicidal activity, damage score ABUTH” value is given as 5; the “Pre-emergence herbicidal activity, damage score ALOMY” value was 4; the “Pre-emergence herbicidal activity, damage score AMARE” value was 5; the “Pre-emergence herbicidal activity, damage score ECHCG” value is given as 5. Also, in assay [1], the “Pre-emergence herbicidal activity, damage score SETFA” value was found to be 5 and the “Pre-emergence herbicidal activity, damage score ZEAMX” value is on record as 4. Further, in assay [2], the “Herbicidal damage score, ABUTH” value was 5; the “Herbicidal damage score, ALOMY” value is reported as 5; the “Herbicidal damage score, AMARE” value worked out at 5; the “Herbicidal damage score, ECHCG” value was determined as 5. Moreover, in assay [2], the “Herbicidal damage score, SETFA” value is recorded as 5 and the “Herbicidal damage score, ZEAMX” value is 3.
Regarding `C=C(C)c1cc(N2C(=O)C(Cl)=C(C)C2O)nn1C` (stereo not shown) [Compound B45], in assay [1], the “Pre-emergence herbicidal activity, damage score ABUTH” value stood at 5; the “Pre-emergence herbicidal activity, damage score ALOMY” value worked out at 4; the “Pre-emergence herbicidal activity, damage score AMARE” value is on record as 5; the “Pre-emergence herbicidal activity, damage score ECHCG” value was 5. Further, in assay [1], the “Pre-emergence herbicidal activity, damage score SETFA” value was determined as 5 and the “Pre-emergence herbicidal activity, damage score ZEAMX” value is 3. For the same compound, in assay [2], the “Herbicidal damage score, ABUTH” value is 5; the “Herbicidal damage score, ALOMY” value is 5; the “Herbicidal damage score, AMARE” value is on record as 5; the “Herbicidal damage score, ECHCG” value worked out at 5. In addition, in assay [2], the “Herbicidal damage score, SETFA” value came out at 5 and the “Herbicidal damage score, ZEAMX” value came out at 4.
As for `CC1=C(Cl)C(=O)N(c2cc(C(C)(C)C)n(C)n2)C1O` (stereo not shown) [Compound B2], in assay [1], the “Pre-emergence herbicidal activity, damage score ABUTH” value came out at 5; the “Pre-emergence herbicidal activity, damage score ALOMY” value came out at 4; the “Pre-emergence herbicidal activity, damage score AMARE” value was 5; the “Pre-emergence herbicidal activity, damage score ECHCG” value is 5. In assay [1], the “Pre-emergence herbicidal activity, damage score SETFA” value is given as 5 and the “Pre-emergence herbicidal activity, damage score ZEAMX” value is 2. Besides, in assay [2], the “Herbicidal damage score, ABUTH” value came to 5; the “Herbicidal damage score, ALOMY” value is 5; the “Herbicidal damage score, AMARE” value is 5; the “Herbicidal damage score, ECHCG” value is reported as 5. Further, in assay [2], the “Herbicidal damage score, SETFA” value was 5 and the “Herbicidal damage score, ZEAMX” value came to 5.
On to `CCC1=C(Br)C(=O)N(c2nn(C)c(C(C)(C)C)c2C#N)C1O` (stereo not shown) [Compound L2], for which, in assay [1], the “Pre-emergence herbicidal activity, damage score ABUTH” value was 4; the “Pre-emergence herbicidal activity, damage score ALOMY” value was 3; the “Pre-emergence herbicidal activity, damage score AMARE” value stood at 3; the “Pre-emergence herbicidal activity, damage score ECHCG” value is 4. In addition, in assay [1], the “Pre-emergence herbicidal activity, damage score SETFA” value came to 3 and the “Pre-emergence herbicidal activity, damage score ZEAMX” value turned out to be 0. In addition, in assay [2], the “Herbicidal damage score, ABUTH” value was determined as 5; the “Herbicidal damage score, ALOMY” value amounted to 5; the “Herbicidal damage score, AMARE” value came to 5; the “Herbicidal damage score, ECHCG” value is recorded as 5. In addition, in assay [2], the “Herbicidal damage score, SETFA” value is listed as 5 and the “Herbicidal damage score, ZEAMX” value was 1.
For `C/C=C\c1cc(N2C(=O)C(Cl)=C(C)C2O)nn1C` (stereo not shown) [Compound B43], in assay [1], the “Pre-emergence herbicidal activity, damage score ABUTH” value worked out at 5; the “Pre-emergence herbicidal activity, damage score ALOMY” value was 2; the “Pre-emergence herbicidal activity, damage score AMARE” value turned out to be 5; the “Pre-emergence herbicidal activity, damage score ECHCG” value was 4. In assay [1], the “Pre-emergence herbicidal activity, damage score SETFA” value is on record as 4 and the “Pre-emergence herbicidal activity, damage score ZEAMX” value amounted to 1. In addition, in assay [2], the “Herbicidal damage score, ABUTH” value is on record as 5; the “Herbicidal damage score, ALOMY” value is given as 4; the “Herbicidal damage score, AMARE” value is 4; the “Herbicidal damage score, ECHCG” value came to 5. Also, in assay [2], the “Herbicidal damage score, SETFA” value is listed as 5 and the “Herbicidal damage score, ZEAMX” value amounted to 2.
In the case of `CC(C)=CCc1cc(N2C(=O)C(Cl)=C(C)C2O)nn1C` (stereo not shown) [Compound B22], in assay [1], the “Pre-emergence herbicidal activity, damage score ABUTH” value came out at 0; the “Pre-emergence herbicidal activity, damage score ALOMY” value amounted to 0; the “Pre-emergence herbicidal activity, damage score ECHCG” value is reported as 0; the “Pre-emergence herbicidal activity, damage score SETFA” value is recorded as 0. Besides, the “Pre-emergence herbicidal activity, damage score ZEAMX” value in assay [1] is 0. Besides, in assay [2], the “Herbicidal damage score, ABUTH” value was determined as 3; the “Herbicidal damage score, ALOMY” value was 0; the “Herbicidal damage score, AMARE” value was determined as 0; the “Herbicidal damage score, ECHCG” value is 2. The “Herbicidal damage score, ZEAMX” value in assay [2] amounted to 2.
Take `CC(C)=CCc1cc(N2C(=O)C(Br)=C(C)C2O)nn1C` (stereo not shown) [Compound J3]: in assay [1], the “Pre-emergence herbicidal activity, damage score ABUTH” value turned out to be 0; the “Pre-emergence herbicidal activity, damage score ALOMY” value is 0; the “Pre-emergence herbicidal activity, damage score AMARE” value came to 0; the “Pre-emergence herbicidal activity, damage score ECHCG” value is recorded as 0. In assay [1], the “Pre-emergence herbicidal activity, damage score SETFA” value worked out at 0 and the “Pre-emergence herbicidal activity, damage score ZEAMX” value turned out to be 0. In addition, in assay [2], the “Herbicidal damage score, ABUTH” value came to 4; the “Herbicidal damage score, ALOMY” value came to 1; the “Herbicidal damage score, AMARE” value is listed as 2; the “Herbicidal damage score, ECHCG” value was found to be 2. In assay [2], the “Herbicidal damage score, SETFA” value worked out at 4 and the “Herbicidal damage score, ZEAMX” value is listed as 0.
With `CC1=C(Cl)C(=O)N(c2nn(C)c3c2CCCC3(C)C)C1O` (stereo not shown) [Compound E5], in assay [1], the “Pre-emergence herbicidal activity, damage score ABUTH” value is recorded as 5; the “Pre-emergence herbicidal activity, damage score ALOMY” value is given as 3; the “Pre-emergence herbicidal activity, damage score AMARE” value is reported as 5; the “Pre-emergence herbicidal activity, damage score ECHCG” value amounted to 5. For the same compound, in assay [1], the “Pre-emergence herbicidal activity, damage score SETFA” value is on record as 5 and the “Pre-emergence herbicidal activity, damage score ZEAMX” value worked out at 2. For the same compound, in assay [2], the “Herbicidal damage score, ABUTH” value turned out to be 5; the “Herbicidal damage score, ALOMY” value is listed as 5; the “Herbicidal damage score, AMARE” value is 5; the “Herbicidal damage score, ECHCG” value was 5. Besides, in assay [2], the “Herbicidal damage score, SETFA” value is on record as 5 and the “Herbicidal damage score, ZEAMX” value stood at 4.
